Reference: PubChem BioAssay (NCI)
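GI50 marks 50% less growth. TGI: concentration producing complete growth inhibition.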

Key:
Test in all cases: DTP human tumour cell line panel, 384-well format
[1] = test system: SK-MEL-5 melanoma
[2] = test system: U251 glioblastoma
[3] = test system: NCI-H460 NSCLC
[4] = test system: SF-539 CNS
[5] = test system: HCT-15 colon
[6] = test system: M14 melanoma
[7] = test system: SN12C renal
[8] = test system: MCF7 breast
[9] = test system: UACC-62 melanoma
[10] = test system: NCI-H226 lung
[11] = test system: NCI-H322M lung
[12] = test system: TK-10 renal
[13] = test system: SW-620 colon
[14] = test system: KM12 colon
[15] = test system: MALME-3M melanoma
[16] = test system: ACHN renal
[17] = test system: RXF 393 renal
[18] = test system: PC-3 prostate
[19] = test system: HOP-62 NSCLC
[20] = test system: SK-OV-3 ovarian
[21] = test system: SNB-19 CNS
[22] = test system: HCC-2998 colon
[23] = test system: COLO 205 colon
[24] = test system: HL-60(TB) leukemia
[25] = test system: MDA-MB-231 breast
[26] = test system: UO-31 renal
[27] = test system: SNB-75 CNS
[28] = test system: OVCAR-3 ovarian
[29] = test system: MDA-MB-468 breast
[30] = test system: RPMI-8226 leukemia
[31] = test system: BT-549 breast
[32] = test system: NCI-H522 lung
[33] = test system: 786-0 renal
[34] = test system: OVCAR-4 ovarian
[35] = test system: HCT-116 colon
[36] = test system: A549 NSCLC
[37] = test system: OVCAR-5 ovarian
[38] = test system: A498 renal
[39] = test system: HOP-92 NSCLC
[40] = test system: HT29 colon
[41] = test system: OVCAR-8 ovarian
[42] = test system: UACC-257 melanoma
[43] = test system: DU-145 prostate
[44] = test system: NCI-H23 lung
[45] = test system: IGROV1 ovarian
[46] = test system: SF-295 CNS
[47] = test system: HS 578T breast
[48] = test system: CCRF-CEM leukemia
[49] = test system: MOLT-4 leukemia
[50] = test system: CAKI-1 renal
[51] = test system: SK-MEL-28 melanoma
[52] = test system: SF-268 CNS
[53] = test system: T-47D breast
[54] = test system: LOX IMVI melanoma
[55] = test system: NCI/ADR-RES ovarian
[56] = test system: MDA-MB-435 melanoma
[57] = test system: EKVX NSCLC
[58] = test system: K-562 leukemia

SMILES: NC(=O)[C@@H](CCC(F)(F)F)N(Cc1ccc(-c2ncon2)cc1F)S(=O)(=O)c1ccc(Cl)cc1
- GI50 [1]: 12.9 µM
- TGI [1]: 25.8 µM
- GI50 [2]: 17.3 µM
- TGI [2]: 31.1 µM
- GI50 [3]: 15.5 µM
- TGI [3]: 29.2 µM
- GI50 [4]: 17.7 µM
- TGI [4]: 31.7 µM
- GI50 [5]: 15.4 µM
- TGI [5]: 29.9 µM
- GI50 [6]: 12.5 µM
- TGI [6]: 25.1 µM
- GI50 [7]: 16.7 µM
- TGI [7]: 30.5 µM
- GI50 [8]: 14.5 µM
- TGI [8]: 28.3 µM
- GI50 [9]: 11.4 µM
- TGI [9]: 23.6 µM
- GI50 [10]: 14.4 µM
- TGI [10]: 28.3 µM
- GI50 [11]: 15 µM
- TGI [11]: 29.5 µM
- GI50 [12]: 18.3 µM
- TGI [12]: 36.4 µM
- GI50 [13]: 17.6 µM
- TGI [13]: 32.5 µM
- GI50 [14]: 15 µM
- TGI [14]: 28.7 µM
- GI50 [15]: 13.4 µM
- TGI [15]: 26.2 µM
- GI50 [16]: 16 µM
- TGI [16]: 30 µM
- GI50 [17]: 11.7 µM
- TGI [17]: 23.9 µM
- GI50 [18]: 12.7 µM
- TGI [18]: 25.8 µM
- GI50 [19]: 14.7 µM
- TGI [19]: 28.1 µM
- GI50 [20]: 17.5 µM
- TGI [20]: 34.4 µM
- GI50 [21]: 16.9 µM
- TGI [21]: 31.5 µM
- GI50 [22]: 3.09 µM
- TGI [22]: 12.6 µM
- GI50 [23]: 15.5 µM
- TGI [23]: 30.2 µM
- GI50 [24]: 14 µM
- TGI [24]: 27.1 µM
- GI50 [25]: 14.6 µM
- TGI [25]: 28.5 µM
- GI50 [26]: 13 µM
- TGI [26]: 25.9 µM
- GI50 [27]: 14.1 µM
- TGI [27]: 28.1 µM
- GI50 [28]: 15.6 µM
- TGI [28]: 29.1 µM
- GI50 [29]: 3.28 µM
- TGI [29]: 22.1 µM
- GI50 [30]: 13.6 µM
- TGI [30]: 26.6 µM
- GI50 [31]: 17.2 µM
- TGI [31]: 32.2 µM
- GI50 [32]: 17.7 µM
- TGI [32]: 31.6 µM
- GI50 [33]: 14.4 µM
- TGI [33]: 27.6 µM
- GI50 [34]: 14.7 µM
- TGI [34]: 28.1 µM
- GI50 [35]: 15.2 µM
- TGI [35]: 28.8 µM
- GI50 [36]: 14.6 µM
- TGI [36]: 28.1 µM
- GI50 [37]: 17.7 µM
- TGI [37]: 33.8 µM
- GI50 [38]: 17.7 µM
- TGI [38]: 31.8 µM
- GI50 [39]: 13.1 µM
- TGI [39]: 26.2 µM
- GI50 [40]: 14.2 µM
- TGI [40]: 27.4 µM
- GI50 [41]: 17.1 µM
- TGI [41]: 31 µM
- GI50 [42]: 14.1 µM
- TGI [42]: 27.3 µM
- GI50 [43]: 19 µM
- TGI [43]: 36.4 µM
- GI50 [44]: 14.6 µM
- TGI [44]: 28.6 µM
- GI50 [45]: 16.4 µM
- TGI [45]: 30.5 µM
- GI50 [46]: 17 µM
- TGI [46]: 31 µM
- GI50 [47]: 12.6 µM
- TGI [47]: 25.2 µM
- GI50 [48]: 11.6 µM
- TGI [48]: 23.8 µM
- GI50 [49]: 5.98 µM
- TGI [49]: 19.8 µM
- GI50 [50]: 15.9 µM
- TGI [50]: 30.9 µM
- GI50 [51]: 18.1 µM
- TGI [51]: 32.1 µM
- GI50 [52]: 13 µM
- TGI [52]: 25.8 µM
- GI50 [53]: 2.15 µM
- TGI [53]: 10.5 µM
- GI50 [54]: 14.4 µM
- TGI [54]: 27.8 µM
- GI50 [55]: 17.1 µM
- TGI [55]: 32 µM
- GI50 [56]: 13.5 µM
- TGI [56]: 26.8 µM
- GI50 [57]: 15.8 µM
- TGI [57]: 31.4 µM
- GI50 [58]: 13.5 µM
- TGI [58]: 26.7 µM
